“And” between values parts separate entries of the source, which are not always exact repeats. Equal values may be shown once. Read-outs that look alike come from different tables or passages of the source. Marks after values point to notes of the source that are not given here.
Test: Phase 1 crossover PK study: oral solution fed/fasted vs IV infusion in healthy subjects
Type: in vivo, human
Experimental: This pharmacokinetic (PK) study in healthy subjects was conducted to characterize and compare the PK parameters in plasma following a single intravenous (IV) dose of Elraglusib Injection, Elraglusib Oral Solution after fasting, and Elraglusib Oral Solution after a high-fat meal (fed). The study was intended to assess the potential feasibility of an oral formulation of elraglusib based on systemic exposure being within the biologically active range. In clinical studies conducted to date, elraglusib Injection (10 mg/mL) is administered IV once or twice per week over multiple hours, which requires a significant amount of time and resources by both patients and site personnel. […] See Example 3 above.
The route of administration is by IV infusion after diluting elraglusib for injection with 0.9% Sodium Chloride Injection.
It is a clear, red solution, free of visible particulate matter and a low bioburden liquid dosage form that is self-preserving against microbial growth.
Subjects received a single 3.3 mg/kg dose of each of the following in a randomly assigned order separated by a 2-week period.
During the study, the high fat meal was administered over a period of under 30 minutes (in almost all cases, 28 minutes).
Elraglusib Injection (10 mg/mL) administered as an IV infusion over 60 minutes (concentration in mg/mL and infusion rate in mL/kg/hour could vary depending on the subject's body weight).
PK parameters including AUC, Cmax, Tmax, and t1/2 were analyzed by standard non-compartmental analysis (NCA) methods following each of the elraglusib doses. Log transformed Cmax and AUC parameters in subjects having adequate PK data following at least 1 of the oral and IV doses were used to assess the relative bioavailability of the oral dose (fed and/or fasted) compared to the IV dose.
All efforts were made to obtain the PK samples at the scheduled nominal times relative to dosing. PK samples were assayed using validated analytical methods.

[1] = IV infusion 3.3 mg/kg, human plasma

Cn1cc(C2=C(c3coc4ccc(F)cc34)C(=O)NC2=O)c2cc3c(cc21)OCO3 [elraglusib, 3-(5-fluorobenzofuran-3-yl)-4-(5-methyl-5H-[1,3]dioxolo[4,5-f]indol-7-yl)-1H-pyrrole-2,5-dione]
% extrap Arithmetic Mean [1]: 1.146%
% extrap GMean [1]: 0.7979%
% extrap Median [1]: 1.04%
AUC∞/Dose Arithmetic Mean [1]: 33.79 ng·h/mL/mg
AUC∞/Dose GMean [1]: 32.93 ng·h/mL/mg
AUC∞/Dose Median [1]: 32.7 ng·h/mL/mg
Clast Arithmetic Mean [1]: 3.045 ng/mL
Clast GMean [1]: 2.142 ng/mL
Clast Median [1]: 2.64 ng/mL
Cmax/Dose Arithmetic Mean [1]: 6.756 ng/mL/mg
Cmax/Dose GMean [1]: 6.615 ng/mL/mg
Cmax/Dose Median [1]: 7.02 ng/mL/mg
R^2 Arithmetic Mean [1]: 0.9904 #
R^2 GMean [1]: 0.9903 #
R^2 Median [1]: 0.9964 #
λZ Arithmetic Mean [1]: 0.0397 h⁻¹
λZ GMean [1]: 0.0372 h⁻¹
λZ Median [1]: 0.0346 h⁻¹
oral bioavailability vs IV, geometric means of AUClast or AUC∞ (human, fasted state): 14-21%
oral bioavailability vs IV, geometric means of Cmax (human, fasted state): 5-11%
half-life (human, plasma, 3.3 mg/kg, human, read-out: terminal elimination half-life, rapid clearance subset of subjects): 7 to 11 h
clearance (human, plasma, iv, 3.3 mg/kg, IV infusion): 7.11 mL/min/kg and 519 mL/min
AUC (human, plasma, iv, 3.3 mg/kg, IV infusion 3.3 mg/kg, human plasma, read-out: AUC24 Arithmetic Mean): 6850 ng·h/mL
AUC (human, plasma, iv, 3.3 mg/kg, IV infusion 3.3 mg/kg, human plasma, read-out: AUC24 GMean): 6730 ng·h/mL
AUC (human, plasma, iv, 3.3 mg/kg, IV infusion 3.3 mg/kg, human plasma, read-out: AUC24 Median): 7200 ng·h/mL
AUC (human, plasma, iv, 3.3 mg/kg, IV infusion 3.3 mg/kg, human plasma, read-out: AUC48 Arithmetic Mean): 7590 ng·h/mL
AUC (human, plasma, iv, 3.3 mg/kg, IV infusion 3.3 mg/kg, human plasma, read-out: AUC48 GMean): 7450 ng·h/mL
AUC (human, plasma, iv, 3.3 mg/kg, IV infusion 3.3 mg/kg, human plasma, read-out: AUC48 Median): 7980 ng·h/mL
AUC (human, plasma, iv, 3.3 mg/kg, IV infusion 3.3 mg/kg, human plasma, read-out: AUC72 Arithmetic Mean): 7840 ng·h/mL
AUC (human, plasma, iv, 3.3 mg/kg, IV infusion 3.3 mg/kg, human plasma, read-out: AUC72 GMean): 7690 ng·h/mL
AUC (human, plasma, iv, 3.3 mg/kg, IV infusion 3.3 mg/kg, human plasma, read-out: AUC72 Median): 8190 ng·h/mL
AUC (human, plasma, iv, 3.3 mg/kg, IV infusion 3.3 mg/kg, human plasma, read-out: AUC96 Arithmetic Mean): 7980 ng·h/mL
AUC (human, plasma, iv, 3.3 mg/kg, IV infusion 3.3 mg/kg, human plasma, read-out: AUC96 GMean): 7810 ng·h/mL
AUC (human, plasma, iv, 3.3 mg/kg, IV infusion 3.3 mg/kg, human plasma, read-out: AUC96 Median): 8250 ng·h/mL
AUC(0-t) (human, plasma, iv, 3.3 mg/kg, IV infusion 3.3 mg/kg, human plasma, read-out: AUClast Arithmetic Mean): 7970 ng·h/mL
AUC(0-t) (human, plasma, iv, 3.3 mg/kg, IV infusion 3.3 mg/kg, human plasma, read-out: AUClast GMean): 7810 ng·h/mL
AUC(0-t) (human, plasma, iv, 3.3 mg/kg, IV infusion 3.3 mg/kg, human plasma, read-out: AUClast Median): 8250 ng·h/mL
AUC(0-inf) (human, plasma, iv, 3.3 mg/kg, IV infusion 3.3 mg/kg, human plasma, read-out: AUC∞ Arithmetic Mean): 8070 ng·h/mL
AUC(0-inf) (human, plasma, iv, 3.3 mg/kg, IV infusion 3.3 mg/kg, human plasma, read-out: AUC∞ GMean): 7900 ng·h/mL
AUC(0-inf) (human, plasma, iv, 3.3 mg/kg, IV infusion 3.3 mg/kg, human plasma, read-out: AUC∞ Median): 8260 ng·h/mL
Cmax (human, plasma, iv, 3.3 mg/kg, IV infusion 3.3 mg/kg, human plasma, read-out: Cmax Arithmetic Mean): 1600 ng/mL
Cmax (human, plasma, iv, 3.3 mg/kg, IV infusion 3.3 mg/kg, human plasma, read-out: Cmax GMean): 1590 ng/mL
Cmax (human, plasma, iv, 3.3 mg/kg, IV infusion 3.3 mg/kg, human plasma, read-out: Cmax Median): 1570 ng/mL
Tmax (human, plasma, iv, 3.3 mg/kg, IV infusion 3.3 mg/kg, human plasma, read-out: Tmax Arithmetic Mean): 1.22 h
Tmax (human, plasma, iv, 3.3 mg/kg, IV infusion 3.3 mg/kg, human plasma, read-out: Tmax GMean): 1.13 h
Tmax (human, plasma, iv, 3.3 mg/kg, IV infusion 3.3 mg/kg, human plasma, read-out: Tmax Median): 1.32 h
half-life (human, plasma, iv, 3.3 mg/kg, IV infusion 3.3 mg/kg, human plasma, read-out: t1/2 Arithmetic Mean (converted)): 19.6 h
half-life (human, plasma, iv, 3.3 mg/kg, IV infusion 3.3 mg/kg, human plasma, read-out: t1/2 GMean (converted)): 18.6 h
half-life (human, plasma, iv, 3.3 mg/kg, IV infusion 3.3 mg/kg, human plasma, read-out: t1/2 Median (converted)): 20.1 h
AUC(0-t) (human, plasma, iv, 3.3 mg/kg, IV infusion 3.3 mg/kg, read-out: AUClast LS Means): 7810 ng·h/mL
AUC(0-inf) (human, plasma, iv, 3.3 mg/kg, IV infusion 3.3 mg/kg, read-out: AUC∞ LS Means): 7900 ng·h/mL
Cmax (human, plasma, iv, 3.3 mg/kg, IV infusion 3.3 mg/kg, read-out: Cmax LS Means): 1590 ng/mL
Cmax (human, plasma, iv, 3.3 mg/kg, human, 3.3 mg/kg IV infusion, read-out: mean Cmax (arithmetic mean)): 1600 ng/mL
AUC(0-inf) (human, plasma, iv, 3.3 mg/kg, human, 3.3 mg/kg IV, read-out: mean AUC∞): 8070 ng·h/mL
Vd (human, plasma, iv, 3.3 mg/kg, human, IV infusion, read-out: volume of distribution): 11.2 L/kg and 822 L
half-life (human, plasma, other: IV or oral, 3.3 mg/kg, human, read-out: terminal elimination half-life, rapid clearance subset of subjects): 6 to 11 h
half-life (human, plasma, other: oral solution (fed and fasted) and IV infusion, 3.3 mg/kg, human, all 3 treatments, read-out: terminal elimination half-life, majority of subjects): 15 to 25 h
half-life (human, plasma, other: oral solution (fed and fasted) and IV infusion, 3.3 mg/kg, human, all three treatments, read-out: mean terminal elimination half-life): 16 to 21 h
Cmax (human, plasma, po, 3.3 mg/kg, human, 3.3 mg/kg oral solution, fasted state, read-out: mean Cmax (arithmetic mean)): 172 ng/mL
Cmax (human, plasma, po, 3.3 mg/kg, human, 3.3 mg/kg oral solution, fed state, read-out: mean Cmax (arithmetic mean)): 592 ng/mL
AUC(0-inf) (human, plasma, po, 3.3 mg/kg, human, 3.3 mg/kg oral, fasted state, read-out: mean AUC∞): 1810 ng·h/mL
AUC(0-inf) (human, plasma, po, 3.3 mg/kg, human, 3.3 mg/kg oral, fed state, read-out: mean AUC∞): 5000 ng·h/mL
bioavailability (human, plasma, po, 3.3 mg/kg, human, 3.3 mg/kg, fasted state (Cmax and AUC based), read-out: oral bioavailability): 5 to 21%
bioavailability (human, plasma, po, 3.3 mg/kg, human, 3.3 mg/kg, fed state (Cmax and AUC based), read-out: oral bioavailability): 19 to 63%
half-life (human, plasma, po, 3.3 mg/kg, human, subject 113, oral fed state, read-out: longest terminal half-life (converted)): 50.5 h
half-life (human, plasma, po, 3.3 mg/kg, human, subject 118, oral fasted state, read-out: shortest half-life (converted)): 6.92 h
bioavailability (human, plasma, po, 3.3 mg/kg, human, read-out: relative bioavailability following oral dosing in the fed state, one subject (105)): 91%
AUC (human, plasma, po, 3.3 mg/kg, oral 3.3 mg/kg fasted state, human plasma, read-out: AUC24 Arithmetic Mean): 1230 ng·h/mL
AUC (human, plasma, po, 3.3 mg/kg, oral 3.3 mg/kg fasted state, human plasma, read-out: AUC24 GMean): 1010 ng·h/mL
AUC (human, plasma, po, 3.3 mg/kg, oral 3.3 mg/kg fasted state, human plasma, read-out: AUC24 Median): 1070 ng·h/mL
AUC (human, plasma, po, 3.3 mg/kg, oral 3.3 mg/kg fasted state, human plasma, read-out: AUC48 Arithmetic Mean): 1620 ng·h/mL
AUC (human, plasma, po, 3.3 mg/kg, oral 3.3 mg/kg fasted state, human plasma, read-out: AUC48 GMean): 1340 ng·h/mL
AUC (human, plasma, po, 3.3 mg/kg, oral 3.3 mg/kg fasted state, human plasma, read-out: AUC48 Median): 1420 ng·h/mL
AUC (human, plasma, po, 3.3 mg/kg, oral 3.3 mg/kg fasted state, human plasma, read-out: AUC72 Arithmetic Mean): 1740 ng·h/mL
AUC (human, plasma, po, 3.3 mg/kg, oral 3.3 mg/kg fasted state, human plasma, read-out: AUC72 GMean): 1430 ng·h/mL
AUC (human, plasma, po, 3.3 mg/kg, oral 3.3 mg/kg fasted state, human plasma, read-out: AUC72 Median): 1530 ng·h/mL
AUC (human, plasma, po, 3.3 mg/kg, oral 3.3 mg/kg fasted state, human plasma, read-out: AUC96 Arithmetic Mean): 1780 ng·h/mL
AUC (human, plasma, po, 3.3 mg/kg, oral 3.3 mg/kg fasted state, human plasma, read-out: AUC96 GMean): 1460 ng·h/mL
AUC (human, plasma, po, 3.3 mg/kg, oral 3.3 mg/kg fasted state, human plasma, read-out: AUC96 Median): 1560 ng·h/mL
AUC(0-t) (human, plasma, po, 3.3 mg/kg, oral 3.3 mg/kg fasted state, human plasma, read-out: AUClast Arithmetic Mean): 1780 ng·h/mL
AUC(0-t) (human, plasma, po, 3.3 mg/kg, oral 3.3 mg/kg fasted state, human plasma, read-out: AUClast GMean): 1460 ng·h/mL
AUC(0-t) (human, plasma, po, 3.3 mg/kg, oral 3.3 mg/kg fasted state, human plasma, read-out: AUClast Median): 1560 ng·h/mL
AUC(0-inf) (human, plasma, po, 3.3 mg/kg, oral 3.3 mg/kg fasted state, human plasma, read-out: AUC∞ Arithmetic Mean): 1810 ng·h/mL
AUC(0-inf) (human, plasma, po, 3.3 mg/kg, oral 3.3 mg/kg fasted state, human plasma, read-out: AUC∞ GMean): 1480 ng·h/mL
AUC(0-inf) (human, plasma, po, 3.3 mg/kg, oral 3.3 mg/kg fasted state, human plasma, read-out: AUC∞ Median): 1590 ng·h/mL
CL/F (human, plasma, po, 3.3 mg/kg, oral 3.3 mg/kg fasted state, human plasma, read-out: CL Median (converted)): 34.5 mL/min/kg
Cmax (human, plasma, po, 3.3 mg/kg, oral 3.3 mg/kg fasted state, human plasma, read-out: Cmax Arithmetic Mean): 172 ng/mL
Cmax (human, plasma, po, 3.3 mg/kg, oral 3.3 mg/kg fasted state, human plasma, read-out: Cmax GMean): 133 ng/mL
Cmax (human, plasma, po, 3.3 mg/kg, oral 3.3 mg/kg fasted state, human plasma, read-out: Cmax Median): 169 ng/mL
Tmax (human, plasma, po, 3.3 mg/kg, oral 3.3 mg/kg fasted state, human plasma, read-out: Tmax Arithmetic Mean): 2.7 h
Tmax (human, plasma, po, 3.3 mg/kg, oral 3.3 mg/kg fasted state, human plasma, read-out: Tmax GMean): 2.42 h

From US20250325517A1, “ORAL DOSAGE FORMS OF ELRAGLUSIB” (Actuate Therapeutics, Inc., priority 2022, published 2025)
